Reference: PubChem BioAssay AID228 (DTP/NCI, 2004)
Several values for one entry are separate records, joined by “and”; a condition that tells them apart may be missing. Identical values can stand only once. Inconclusive results are not listed.

Test system: BDF1 mice, Friend leukemia sc, tumor weight T/C
Test: NCI In Vivo Anticancer Drug Screen. Data for tumor model Friend Virus Leukemia (Solid) (subcutaneous) in B6D2F1 (BDF1) mice
Conditions: endpoint: mean tumor weight, higher = larger tumour
Method: The antitumor activity of compounds was measured in mice bearing transplantable tumors. Survival or tumor size were measured and the results are expressed as the measurement made in the treated group (T) divided by the measurement made in the vehicle treated control group (C). The tumor model used in this assay is Friend Virus Leukemia (Solid) (subcutaneous) in B6D2F1 (BDF1) mice

[1] = dose: 22.0 mg/kg/injection, schedule: Q01DX011 (ip), vehicle: carboxymethylcellulose (CMC)
[2] = dose: 25.0 mg/kg/injection, schedule: Q01DX011 (ip), vehicle: carboxymethylcellulose (CMC)
[3] = dose: 100.0 mg/kg/injection, schedule: Q01DX011 (ip), vehicle: carboxymethylcellulose (CMC)

SMILES: CN(C)C(=S)N=Nc1c(O)[nH]c2ccccc12
- T/C (dose: 15.0 mg/kg/injection, schedule: Q01DX011 (ip), vehicle: saline): 76 % of control
- T/C (dose: 30.0 mg/kg/injection, schedule: Q01DX011 (ip), vehicle: saline): 105 % of control
- T/C (dose: 60.0 mg/kg/injection, schedule: Q01DX011 (ip), vehicle: saline): 85 % of control
- T/C (dose: 120.0 mg/kg/injection, schedule: Q01DX011 (ip), vehicle: saline): 54 % of control

SMILES: CCCCn1cnc2c(SC)nc(N)nc21
- T/C (dose: 18.75 mg/kg/injection, schedule: Q01DX011 (ip), vehicle: carboxymethylcellulose (CMC)): 120 % of control
- T/C (dose: 37.5 mg/kg/injection, schedule: Q01DX011 (ip), vehicle: carboxymethylcellulose (CMC)): 98 % of control
- T/C (dose: 75.0 mg/kg/injection, schedule: Q01DX011 (ip), vehicle: carboxymethylcellulose (CMC)): 83 % of control
- T/C (dose: 150.0 mg/kg/injection, schedule: Q01DX011 (ip), vehicle: carboxymethylcellulose (CMC)): 63 % of control

SMILES: CC(C)CCSc1nc(N)nc2nc[nH]c12
- T/C (dose: 11.0 mg/kg/injection, schedule: Q01DX011 (ip), vehicle: carboxymethylcellulose (CMC)): 59 % of control
- T/C [1]: 38 % of control
- T/C (dose: 45.0 mg/kg/injection, schedule: Q01DX011 (ip), vehicle: carboxymethylcellulose (CMC)): 18 % of control and 21 % of control
- T/C (dose: 90.0 mg/kg/injection, schedule: Q01DX011 (ip), vehicle: carboxymethylcellulose (CMC)): 7 % of control and 21 % of control
- T/C (dose: 180.0 mg/kg/injection, schedule: Q01DX011 (ip), vehicle: carboxymethylcellulose (CMC)): 5 % of control

SMILES: CNS(=O)(=O)c1ncnc2nc[nH]c12
- T/C (dose: 20.0 mg/kg/injection, schedule: Q01DX011 (ip), vehicle: carboxymethylcellulose (CMC)): 94 % of control
- T/C (dose: 26.0 mg/kg/injection, schedule: Q01DX011 (ip), vehicle: carboxymethylcellulose (CMC)): 86 % of control
- T/C (dose: 35.0 mg/kg/injection, schedule: Q01DX011 (ip), vehicle: carboxymethylcellulose (CMC)): 96 % of control
- T/C (dose: 70.62 mg/kg/injection, schedule: Q01DX011 (ip), vehicle: carboxymethylcellulose (CMC)): 43 % of control
- T/C (dose: 107.0 mg/kg/injection, schedule: Q01DX011 (ip), vehicle: carboxymethylcellulose (CMC)): 49 % of control

SMILES: Nc1ccc(O)cc1
- T/C (dose: 100.0 mg/kg/injection, schedule: Q01DX011 (ip), vehicle: saline): 64 % of control
- T/C (dose: 200.0 mg/kg/injection, schedule: Q01DX011 (ip), vehicle: saline): 4 % of control

SMILES: COc1ccc(-c2coc3cc(OC)c(OC)c(OC)c3c2=O)cc1
- T/C (dose: 50.0 mg/kg/injection, schedule: Q01DX011 (sc), vehicle: steriod suspending solution): 299 % of control
- T/C (dose: 100.0 mg/kg/injection, schedule: Q01DX011 (sc), vehicle: steriod suspending solution): 250 % of control
- T/C (dose: 200.0 mg/kg/injection, schedule: Q01DX011 (sc), vehicle: steriod suspending solution): 275 % of control

SMILES: O=C(N[C@H](CO)[C@H](O)c1ccc([N+](=O)[O-])cc1)C(Cl)Cl
- T/C (dose: 47.0 mg/kg/injection, schedule: Q01DX011 (ip), vehicle: carboxymethylcellulose (CMC)): 105 % of control
- T/C (dose: 95.0 mg/kg/injection, schedule: Q01DX011 (ip), vehicle: carboxymethylcellulose (CMC)): 98 % of control
- T/C (dose: 191.0 mg/kg/injection, schedule: Q01DX011 (ip), vehicle: carboxymethylcellulose (CMC)): 77 % of control
- T/C (dose: 383.0 mg/kg/injection, schedule: Q01DX011 (ip), vehicle: carboxymethylcellulose (CMC)): 108 % of control

SMILES: CCN(CC)CCNc1ccc([N+](=O)[O-])c2sc3ccccc3c(=O)c12
- T/C (dose: 20.0 mg/kg/injection, schedule: Q01DX011 (ip), vehicle: saline): 87 % of control
- T/C (dose: 40.0 mg/kg/injection, schedule: Q01DX011 (ip), vehicle: saline): 110 % of control

SMILES: CCNc1nncs1
- T/C (dose: 8.62 mg/kg/injection, schedule: Q01DX011 (ip), vehicle: carboxymethylcellulose (CMC)): 122 % of control
- T/C (dose: 17.25 mg/kg/injection, schedule: Q01DX011 (ip), vehicle: carboxymethylcellulose (CMC)): 107 % of control
- T/C (dose: 34.5 mg/kg/injection, schedule: Q01DX011 (ip), vehicle: carboxymethylcellulose (CMC)): 193 % of control
- T/C (dose: 69.0 mg/kg/injection, schedule: Q01DX011 (ip), vehicle: carboxymethylcellulose (CMC)): 112 % of control

SMILES: O=C(O)CC(O)(CC(=O)O)C(=O)O.[Ga]
- T/C [2]: 108 % of control
- T/C (dose: 50.0 mg/kg/injection, schedule: Q01DX011 (ip), vehicle: carboxymethylcellulose (CMC)): 104 % of control

SMILES: CSc1ncc(Br)c(Sc2nc(N)nc3nc[nH]c23)n1
- T/C (dose: 3.12 mg/kg/injection, schedule: Q01DX011 (ip), vehicle: carboxymethylcellulose (CMC)): 92 % of control
- T/C (dose: 6.25 mg/kg/injection, schedule: Q01DX011 (ip), vehicle: carboxymethylcellulose (CMC)): 81 % of control
- T/C (dose: 12.5 mg/kg/injection, schedule: Q01DX011 (ip), vehicle: carboxymethylcellulose (CMC)): 51 % of control

SMILES: C[C@]12CCC(=O)C=C1CC[C@@H]1[C@@H]2[C@@H](O)C[C@@]2(C)[C@H]1CC[C@]2(O)C(=O)COC(=O)CCC(=O)O
- T/C (dose: 75.0 mg/kg/injection, schedule: Q01DX011 (sc), vehicle: steriod suspending solution): 52 % of control
- T/C (dose: 150.0 mg/kg/injection, schedule: Q01DX011 (sc), vehicle: steriod suspending solution): 49 % of control
- T/C (dose: 300.0 mg/kg/injection, schedule: Q01DX011 (sc), vehicle: steriod suspending solution): 27 % of control

SMILES: CN(C)c1ccc(C(N)=O)cn1
- T/C (dose: 1.0 mg/kg/injection, schedule: Q01DX011 (ip), vehicle: carboxymethylcellulose (CMC)): 78 % of control
- T/C (dose: 2.0 mg/kg/injection, schedule: Q01DX011 (ip), vehicle: carboxymethylcellulose (CMC)): 88 % of control and 100 % of control

SMILES: CCOc1ccc2nc(S(N)(=O)=O)sc2c1
- T/C (dose: 62.0 mg/kg/injection, schedule: Q01DX011 (ip), vehicle: carboxymethylcellulose (CMC)): 77 % of control
- T/C (dose: 125.0 mg/kg/injection, schedule: Q01DX011 (ip), vehicle: carboxymethylcellulose (CMC)): 89 % of control

SMILES: CSc1ncnc2c1ncn2C1CCCO1 (centres undefined)
- T/C (dose: 12.0 mg/kg/injection, schedule: Q01DX011 (ip), vehicle: carboxymethylcellulose (CMC)): 96 % of control
- T/C [2]: 45 % of control
- T/C [3]: 3 % of control and 9 % of control

SMILES: O=C1C=CC(=O)O1 (tested in a mixture with another compound)
- T/C (dose: 7.5 mg/kg/injection, schedule: Q#A X022 (ip), vehicle: carboxymethylcellulose (CMC)): 58 % of control
- T/C (dose: 15.5 mg/kg/injection, schedule: Q#A X022 (ip), vehicle: carboxymethylcellulose (CMC)): 84 % of control
- T/C (dose: 125.0 mg/kg/injection, schedule: Q#A X022 (ip), vehicle: carboxymethylcellulose (CMC)): 96 % of control
- T/C (dose: 250.0 mg/kg/injection, schedule: Q#A X022 (ip), vehicle: carboxymethylcellulose (CMC)): 33 % of control

SMILES: O=C(Nc1ccc(C2=NCCCN2)cc1)c1ccc(C(=O)Nc2ccc(C3=NCCCN3)cc2)cc1
- T/C (dose: 0.75 mg/kg/injection, schedule: Q01DX011 (ip), vehicle: carboxymethylcellulose (CMC)): 121 % of control
- T/C (dose: 1.5 mg/kg/injection, schedule: Q01DX011 (ip), vehicle: carboxymethylcellulose (CMC)): 102 % of control
- T/C (dose: 3.0 mg/kg/injection, schedule: Q01DX011 (ip), vehicle: carboxymethylcellulose (CMC)): 44 % of control
- T/C (dose: 3.75 mg/kg/injection, schedule: Q01DX011 (ip), vehicle: carboxymethylcellulose (CMC)): 75 % of control
- T/C (dose: 5.0 mg/kg/injection, schedule: Q01DX011 (ip), vehicle: carboxymethylcellulose (CMC)): 42 % of control
- T/C (dose: 6.0 mg/kg/injection, schedule: Q01DX011 (ip), vehicle: carboxymethylcellulose (CMC)): 64 % of control
- T/C (dose: 7.5 mg/kg/injection, schedule: Q01DX011 (ip), vehicle: carboxymethylcellulose (CMC)): 10 % of control

SMILES: C[C@H](N)C(=O)N[C@@H]1[C@H]2C(=C(O)C[C@@H](O)[C@@H]2O)C(=O)O[C@@H]1C
- T/C [3]: 43 % of control
- T/C (dose: 200.0 mg/kg/injection, schedule: Q01DX011 (ip), vehicle: carboxymethylcellulose (CMC)): 48 % of control
- T/C (dose: 1000.0 mg/kg/injection, schedule: Q01DX011 (ip), vehicle: carboxymethylcellulose (CMC)): 17 % of control

SMILES: Nc1nc(=S)c2[nH]cnc2[nH]1
- T/C (dose: 0.25 mg/kg/injection, schedule: Q01DX011 (ip), vehicle: carboxymethylcellulose (CMC)): 53 % of control and 47 % of control
- T/C (dose: 0.4 mg/kg/injection, schedule: Q01DX011 (ip), vehicle: carboxymethylcellulose (CMC)): 33 % of control and 36 % of control
- T/C (dose: 0.66 mg/kg/injection, schedule: Q01DX011 (ip), vehicle: carboxymethylcellulose (CMC)): 23 % of control and 26 % of control

SMILES: O=C1C(NC(=O)C2CCCCC2)=C(N2CC2)C(=O)C(NC(=O)C2CCCCC2)=C1N1CC1
- T/C [1]: 106 % of control
- T/C (dose: 43.0 mg/kg/injection, schedule: Q01DX011 (ip), vehicle: carboxymethylcellulose (CMC)): 82 % of control
- T/C (dose: 87.0 mg/kg/injection, schedule: Q01DX011 (ip), vehicle: carboxymethylcellulose (CMC)): 62 % of control
- T/C (dose: 350.0 mg/kg/injection, schedule: Q01DX011 (ip), vehicle: carboxymethylcellulose (CMC)): 61 % of control
